In experiment [1] the target is HPK1 kinase (aal-346. Life Technologies) (Homo sapiens (Human), UniProt Q92918). Description: HPK Kinase Activity Assay at 1 mM ATP (TR-FRET). It is filed as biochemical. The settings on record: HPK1 kinase 40 nM, 0.5 μM STK1 substrate, read-out: Enzymatic activity IC50.
For experiment [2], the system named is pSLP76(S376) level in Jurkat cell line. Description: Cellular pSLP76(S376) HTRF Assay. To be noted: Homo sapiens, Jurkat, Jurkat cells, 2 h compound treatment, stimulated with 0.05 μg/mL anti-human CD3 (OKT3) for 30 min. The experiment is classed as cell-based.

Sequence of HPK1 kinase (aal-346. Life Technologies) (Q92918 1-346): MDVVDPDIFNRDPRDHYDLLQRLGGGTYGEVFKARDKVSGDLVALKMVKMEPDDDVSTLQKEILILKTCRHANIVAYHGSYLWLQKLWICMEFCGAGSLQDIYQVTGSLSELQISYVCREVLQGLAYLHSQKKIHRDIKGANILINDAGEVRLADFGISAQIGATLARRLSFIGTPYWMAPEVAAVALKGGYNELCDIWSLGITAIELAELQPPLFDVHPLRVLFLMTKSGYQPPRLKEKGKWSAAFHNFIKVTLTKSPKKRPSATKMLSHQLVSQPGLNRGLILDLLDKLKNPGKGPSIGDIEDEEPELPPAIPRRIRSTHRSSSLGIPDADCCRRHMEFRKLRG

Take `CNS(=O)(=O)c1cc(C)cc(-c2cnc(N)c(Oc3cnn(C4CCN(C5CC5)CC4)c3)n2)c1` [Example A24, 3-(5-amino-6-((1-(1-cyclopropylpiperidin-4-yl)-1H-pyrazol-4-yl)oxy)pyrazin-2-yl)-N,5-dimethylbenzenesulfonamide]: the IC50 in experiment [1] is 0.104 µM; in experiment [2], 0.175 µM.
On the same counts, the results for `Cc1cc(-c2cnc(N)c(Oc3cnn(C4CCN(C)CC4)c3)n2)cc(C2(NS(=O)(=O)CC(F)(F)F)CC2)c1` [Example A25, N-(l-(3-(5-amino-6-((1-(1-methylpiperidin-4-yl)-H-pyrazol-4-yl)oxy)pyrazin-2-yl)-5-methylphenyl)cyclopropyl)-2,2,2-trifluoroethane-1-sulfonamide] are 0.014 µM and 0.062 µM.
On the same counts, the results for `CNC(=O)NCc1c(C)cc(-c2cnc(N)c(Oc3cnn(C4CCN(C)CC4)c3)n2)cc1C` [Example A26, 1-(4-(5-amino-6-((1-(1-methylpiperidin-4-yl)-1H-pyrazol-4-yl)oxy)pyrazin-2-yl)-2,6-dimethylbenzyl)-3-methylurea] are 0.03 µM and 0.082 µM.
The matching figures for `CCN1CCC(n2cc(Oc3nc(-c4cc(C)cc(S(=O)(=O)NC)c4)cnc3N)cn2)CC1` [Example A27, 3-(5-amino-6-((1-(1-ethylpiperidin-4-yl)-1H-pyrazol-4-yl)oxy)pyrazin-2-yl)-N,5-dimethylbenzenesulfonamide]: 0.057 µM and 0.081 µM.
For `CNS(=O)(=O)c1cc(C)cc(-c2cnc(N)c(Oc3cnn(C4CCN(CC5COC5)CC4)c3)n2)c1` [Example A28, 3-(5-amino-6-((1-(1-(oxetan-3-ylmethyl)piperidin-4-yl)-1H-pyrazol-4-yl)oxy)pyrazin-2-yl)-N, 5-dimethylbenzenesulfonamide], the IC50 in experiment [1] was found to be 0.05 µM; in experiment [2], 0.097 µM.
The matching figures for `Cc1cc(-c2cnc(N)c(Oc3cnn(C4CCN(C)CC4)c3)n2)cc(C)c1C1COC(=O)N1` (stereo not shown) [Example A29, 4-(4-(5-amino-6-((1-(1-methylpiperidin-4-yl)-1H-pyrazol-4-yl)oxy)pyrazin-2-yl)-2,6-dimethylphenyl)oxazolidin-2-one]: 0.021 µM and 0.097 µM.
The matching figures for `CNS(=O)(=O)c1cc(-c2cnc(N)c(Oc3cnn(C4CCN(C)CC4)c3)n2)cc(C(C)(C)C)c1` [Example A30, 3-(5-amino-6-((1-(1-methylpiperidin-4-yl)-1H-pyrazol-4-yl)oxy)pyrazin-2-yl)-5-(tert-butyl)-N-methylbenzenesulfonamide]: 0.111 µM and 0.33 µM.
As to `Cc1cc(-c2cnc(N)c(Oc3cnn(C4CCN(C)CC4)c3)n2)cc(C)c1CNS(=O)(=O)C1CCOCC1` [Example A31, N-(4-(5-amino-6-((1-(1-methylpiperidin-4-yl)-1H-pyrazol-4-yl)oxy)pyrazin-2-yl)-2,6-dimethylbenzyl)tetrahydro-2H-pyran-4-sulfonamide], the values for the IC50 in experiment [1] and in experiment [2] were 0.034 µM and 0.077 µM, respectively.
The matching figures for `Cc1cc(-c2cnc(N)c(Oc3cnn(C4CCN(C)CC4)c3)n2)cc(C)c1CNS(=O)(=O)C1CC1` [Example A32, N-(4-(5-amino-6-((1-(1-methylpiperidin-4-yl)-1H-pyrazol-4-yl)oxy)pyrazin-2-yl)-2,6-dimethylbenzyl)cyclopropanesulfonamide]: 0.03 µM and 0.081 µM.
The matching figures for `Cc1cc(-c2cnc(N)c(Oc3cnn(C4CCN(C)CC4)c3)n2)cc(C(F)F)c1C(=O)NCCN(C)C` [Example A33, 4-(5-amino-6-((1-(1-methylpiperidin-4-yl)-1H-pyrazol-4-yl)oxy)pyrazin-2-yl)-2-(difluoromethyl)-N-(2-(dimethylamino)ethyl)-6-methylbenzamide]: 0.067 µM and 0.102 µM.
As to `Cc1cc(-c2cnc(N)c(Oc3cnn(C4CCN(C)CC4)c3)n2)cc(C)c1C1COCC(=O)N1` (stereo not shown) [Example A35, 5-(4-(5-amino-6-((1-(1-methylpiperidin-4-yl)-1H-pyrazol-4-yl)oxy)pyrazin-2-yl)-2,6-dimethylphenyl)morpholin-3-one], the IC50 in experiment [1] is 0.047 µM; in experiment [2] it was 0.123 µM.
As for `CCNC(=O)NCc1c(C)cc(-c2cnc(N)c(Oc3cnn(C4CCN(C)CC4)c3)n2)cc1C` [Example A36, 1-(4-(5-amino-6-((1-(1-methylpiperidin-4-yl)-1H-pyrazol-4-yl)oxy)pyrazin-2-yl)-2,6-dimethylbenzyl)-3-ethylurea], the IC50 in experiment [1] came to 0.022 µM; in experiment [2], 0.054 µM.
On the same counts, the results for `Cc1cc(-c2cnc(N)c(Oc3cnn(C4CCN(C)CC4)c3)n2)cc(C)c1CNC(=O)NC1CCCC1` [Example A37, 1-(4-(5-amino-6-((1-(1-methylpiperidin-4-yl)-1H-pyrazol-4-yl)oxy)pyrazin-2-yl)-2,6-dimethylbenzyl)-3-cyclopentylurea] are 0.017 µM and 0.098 µM.
On the same counts, the results for `Cc1cc(-c2cnc(N)c(Oc3cnn(C4CCN(C)CC4)c3)n2)cc(C)c1CNS(=O)(=O)c1ccccc1` [Example A38, N-(4-(5-amino-6-((1-(1-methylpiperidin-4-yl)-1H-pyrazol-4-yl)oxy)pyrazin-2-yl)-2,6-dimethylbenzyl)benzenesulfonamide] are 0.037 µM and 0.125 µM.
On the same counts, the results for `COc1ccc(S(=O)(=O)NCc2c(C)cc(-c3cnc(N)c(Oc4cnn(C5CCN(C)CC5)c4)n3)cc2C)cc1` [Example A39, N-(4-(5-amino-6-((1-(1-methylpiperidin-4-yl)-1H-pyrazol-4-yl)oxy)pyrazin-2-yl)-2,6-dimethylbenzyl)-4-methoxybenzenesulfonamide] are 0.035 µM and 0.176 µM.
As to `Cc1cc(-c2cnc(N)c(Oc3cnn(C4CCN(C)CC4)c3)n2)cc(C)c1CNS(=O)(=O)C1CCCC1` [Example A40, N-(4-(5-amino-6-((1-(1-methylpiperidin-4-yl)-1H-pyrazol-4-yl)oxy)pyrazin-2-yl)-2,6-dimethylbenzyl)cyclopentanesulfonamide], the results for the IC50 in experiment [1] and in experiment [2] were 0.033 µM and 0.125 µM, respectively.
The matching figures for `CNS(=O)(=O)c1cc(-c2cnc(N)c(Oc3cnn(C4CCN(C)CC4)c3)n2)cc(N2CCCCC2)c1` [Example A41, 3-(5-amino-6-((1-(1-methylpiperidin-4-yl)-1H-pyrazol-4-yl)oxy)pyrazin-2-yl)-N-methyl-5-(piperidin-1-yl)benzenesulfonamide]: 0.011 µM and 0.101 µM.
The matching figures for `CNS(=O)(=O)c1cc(-c2cnc(N)c(Oc3cnn(C4CCN(C)CC4)c3)n2)cc(N2CCOCC2)c1` [Example A42, 3-(5-amino-6-((1-(1-methylpiperidin-4-yl)-1H-pyrazol-4-yl)oxy)pyrazin-2-yl)-N-methyl-5-morpholinobenzenesulfonamide]: 0.019 µM and 0.082 µM.
With `CNS(=O)(=O)c1cc(-c2cnc(N)c(Oc3cnn(C4CCN(C)CC4)c3)n2)cc(N2CCC[C@H]2C)c1` [Example A43, (R)-3-(5-amino-6-((1-(1-methylpiperidin-4-yl)-1H-pyrazol-4-yl)oxy)pyrazin-2-yl)-N-methyl-5-(2-methylpyrrolidin-1-yl)benzenesulfonamide], the IC50 in experiment [1] came out at 0.006 µM; in experiment [2], 0.026 µM.
The matching figures for `Cc1cc(-c2cnc(N)c(Oc3cnn(C4CCN(C)CC4)c3)n2)cc(C)c1CNC(=O)c1ccccc1` [Example A44, N-(4-(5-amino-6-((1-(1-methylpiperidin-4-yl)-1H-pyrazol-4-yl)oxy)pyrazin-2-yl)-2,6-dimethylbenzyl)benzamide]: 0.009 µM and 0.061 µM.
The matching figures for `CC(=O)NCc1c(C)cc(-c2cnc(N)c(Oc3cnn(C4CCN(C)CC4)c3)n2)cc1C` [Example A45, N-(4-(5-amino-6-((1-(1-methylpiperidin-4-yl)-1H-pyrazol-4-yl)oxy)pyrazin-2-yl)-2,6-dimethylbenzyl)acetamide]: 0.051 µM and 0.119 µM.
With `Cc1cc(-c2cnc(N)c(Oc3cnn(C4CCN(C)CC4)c3)n2)ccc1CNS(C)(=O)=O` [Example A46, N-(4-(5-amino-6-((1-(1-methylpiperidin-4-yl)-1H-pyrazol-4-yl)oxy)pyrazin-2-yl)-2-methylbenzyl)methanesulfonamide], the IC50 is 0.051 µM in experiment [1] and 0.098 µM in experiment [2].
The matching figures for `CNC(=O)NCc1ccc(-c2cnc(N)c(Oc3cnn(C4CCN(C)CC4)c3)n2)cc1C` [Example A47, 1-(4-(5-amino-6-((1-(1-methylpiperidin-4-yl)-1H-pyrazol-4-yl)oxy)pyrazin-2-yl)-2-methylbenzyl)-3-methylurea]: 0.068 µM and 0.183 µM.
On the same counts, the results for `Cc1cc(-c2cnc(N)c(Oc3cnn(C4CCN(C)CC4)c3)n2)cc(C)c1CNCC(F)(F)F` [Example A48, 5-(3,5-dimethyl-4-(((2,2,2-trifluoroethyl)amino)methyl)phenyl)-3-((1-(1-methylpiperidin-4-yl)-1H-pyrazol-4-yl)oxy)pyrazin-2-amine] are 0.05 µM and 0.183 µM.
`CNS(=O)(=O)c1cc(-c2cnc(N)c(Oc3cnn(C4CCN(C)CC4)c3)n2)cc(N2CCOC[C@H]2C)c1` [Example A49, (R)-3-(5-amino-6-((1-(1-methylpiperidin-4-yl)-1H-pyrazol-4-yl)oxy)pyrazin-2-yl)-N-methyl-5-(3-methylmorpholino)benzenesulfonamide]: the figures for the IC50 in experiment [1] and in experiment [2] were 0.011 µM and 0.082 µM, respectively.
On the same counts, the results for `Cc1cc(-c2cnc(N)c(Oc3cnn(C4CCN(C)CC4)c3)n2)cc([Si](C)(C)O)c1` [Example A50, (3-(5-amino-6-((1-(1-methylpiperidin-4-yl)-1H-pyrazol-4-yl)oxy)pyrazin-2-yl)-5-methylphenyl)dimethylsilanol] are 0.018 µM and 0.095 µM.

One may read the IC50 as the midpoint of a concentration-inhibition curve.

The record behind these values is patent US20240317714A1, “3-[(1H-PYRAZOL-R-YL)OXY]PYRAZIN-2-AMINE COMPOUNDS AS HPK1 INHIBITOR AND USE THEREOF” (BeiGene, Ltd., priority 2020, published 2024).
